The test system of experiment [1] is MDA-MB-231 cancer cells. The experiment can be described thus: Cell proliferation of MDA-MB-231 cancer cells (CellTiterGlo). It is filed as cell-based, human. The settings on record: MDA-MB-231, 3 days, 15% FCS RPMI, Lalistat concentrations descending from 50 μM, non-cell-toxic range. How it is done: Cell proliferation was ascertained using Cell-TiterGlo®.
MDA-MB-231 cancer cells were incubated with Lalistat 2 (selective LAL inhibitor) or the formulation control (mock).
MDA-MB-231 cancer cells were incubated with Lalistat 2 (selective LAL inhibitor) or the formulation control (mock). For the formulation control, […] alone was used with the same concentration of DMSO as for Lalistat 2. 24 hours after seeding, the cancer cells were incubated for 3 days in 15% FCS-containing RPMI medium having concentrations of Lalistat descending from 50 μM or the corresponding DMSO concentration as control. Subsequently, CellTiterGlo® (Promega) was used to quantify the number of vital cancer cells.
In general terms: Cellular ATP, detected with luciferase, serves as a proxy for viable cell number.

For experiment [2], the system named is PD-L1 expression on cancer cells. The experiment can be described thus: PD-L1 expression on cancer cells after Lalistat treatment. It is filed as cell-based.
Experiment [3] deals with MDA-MB-231 cancer cells. The experiment can be described thus: Relative expression of tumor stem cell markers and vimentin by quantitative PCR. It counts as cell-based, human. The conditions noted are these: MDA-MB-231, 6 days, 50 μM Lalistat vs 0.05% DMSO. How it is done:
24 hours after seeding, MDA-MB-231 cancer cells were incubated for 6 days in 15% FCS-containing RPMI medium containing 50 μM Lalistat or formulation control (0.05% DMSO). Subsequently, the relative expression of the (A-C) tumor stem cell markers ALDH1, CD44 and the ratio CD44/CD24 and of the (D) mesenchymal marker vimentin was analyzed by means of quantitative PCR. The values were normalized to the housekeepers GAPDH or HRPT1. The target was amplified in a singleplex assay using “SYBR Green”.
The results of two independent experiments with three biological replicates in each case are depicted. Significance difference compared to formulation control: ALDH: 0.0026 (GAPDH), 0.0004 (HRPT1); CD44: […] (GAPDH/HRPT1); CD44/CD24: <0.01

Consider `O=C(Oc1nsnc1N1CCCCC1)N1CCCCC1` [Lalistat 2, 4-(piperidin-1-yl)-1,2,5-thiadiazol-3-yl piperidine-1-carboxylate], for which the “cell proliferation compared to formulation control” value in the experiment with MDA-MB-231 cancer cells [1] was “antiproliferative effect”; with MDA-MB-231 cancer cells [1] (listed as Lalistat), “distinct inhibition of cell proliferation”. In addition, the “PD-L1 expression on cancer cells” value in experiment [2] was “reduced PD-L1 expression”. In the experiment with MDA-MB-231 cancer cells [3] (qPCR), the “expression of mesenchymal marker vimentin” value is reported as “reduction in the expression”. For the same compound, in the experiment on MDA-MB-231 cancer cells [3] (qPCR normalized to GAPDH or HRPT1), the “expression of (tumor) stem cell markers (ALDH1, CD44, ratio CD44/CD24)” value was “reduction in the expression”.

Source of the values: patent publication US20220226339A1, “INHIBITATION OF ACID LIPASE FOR CANCER THERAPY” (Heinrich-Heine-Universität Düsseldorf, priority 2019, published 2022).
